Measurements published in patent publication US6391614B1, “Auxiliary gene and protein of methicillin resistant bacteria and antagonists thereof” (priority 1995, dated 2002).
≈ marks a conversion by molar mass, not a printed value. Read-outs that look alike come from different tables or passages of the source.

Columns and labels:
SWTD5 (RUSA12F/pGCSW-3) = experiment: Standard disk susceptibility, transductant SWTD5; assay type: cell-based, Staphylococcus aureus; settings: SWTD5 versus recipient RUSA12F; FIG. 5
Experimental: (§1) Susceptibility testing and population analysis. One colony of bacterial strain was inoculated into 5 ml of TSB (tryptic soy broth, Difco Laboratories) and incubated at 37° C. with 200 rpm rotation for overnight. Culture density (OD600) was adjusted to give a viable titer of 10^8 to 10^9 cfu/ml. Sterile swabs were dipped into the bacterial suspension and applied to TSA (tryptic soy agar, Difco Laboratories) plates without antibiotics, and 6-mm-diameter disks containing antibiotics were applied to the plates with a disk dispenser (BBL, Beckton-Dickinson and Company). The antibiotics used were as follows: […] of methicillin, 10 U of penicillin, 30 μg of cefazolin, 20 μg of ampicillin/sulbactam, 15 μg of erythromycin, 10 μg of gentamicin, 30 μg of tetracycline, 30 μg chloramphenicol, 5 μg of rifampin, and 5 μg of ciproflaxin (BBL, Becton Dickinson and Company). Diameters of inhibition zones were read after incubation at 37° C. for 24 h. To perform population analysis, aliquots of overnight cultures were spread onto TSA plates containing increasing concentrations of methicillin. CFU were determined after 48 h of incubation at 37° C. [de Lencastre et al., Antimicrob Agents Chemother. 35:632-639 (1991)].
(§2) Complementation analysis with plasmid pGCSW-3. Plasmid pGCSW-3 was transformed into S. aureus RN4220 (r-) by electroporation and the electro-transformant SWET3 was used as donor to introduce pGCSW-3 into recipients RUSA315 and RUSA12F.

SWTD3 (RUSA315/pGCSW-3) [1] = experiment: Standard disk susceptibility, transductant SWTD3; assay type: cell-based, Staphylococcus aureus; settings: SWTD3 versus recipient RUSA315; FIG. 5
Experimental: as §1, §2

[2] = test system: staphylococci without the mecA gene; settings: bacteria without mecA; cited from earlier work
four staphylococcal PBPs = settings: in vitro; cited from earlier work
MRSA strain COL [3] = experiment: Methicillin MIC, parental highly methicillin resistant strain COL; assay type: cell-based, Staphylococcus aureus
Experimental: as §1

[4] = test system: Tn551 insertional (auxiliary) mutants; settings: cited from earlier work
strain COL = settings: peptidoglycan composition; cited from earlier work
[5] = test system: Tn551 insertional (auxiliary) mutants; experiment: Methicillin MIC, Tn551 auxiliary mutants with intact mecA; assay type: cell-based; settings: Staphylococcus aureus, read-out: methicillin MIC
SWTD3 (RUSA315/pGCSW-3) [6] = experiment: Population analysis on methicillin-containing TSA plates, SWTD3; assay type: cell-based, Staphylococcus aureus; settings: SWTD3, data not shown
Experimental: as §1

MRSA strain COL [7] = settings: cited from earlier work
[8] = test system: mecA Tn551 transposon mutant; settings: Tn551 inserted into mecA; cited from earlier work
[9] = test system: mutant RUSA315 (femR315::Tn551); experiment: Methicillin MIC, Tn551 insertional mutant RUSA315; assay type: cell-based; settings: Staphylococcus aureus
Experimental: as §1

In the case of “ampicillin/sulbactam [ampicillinisulbactam]”, the “antimicrobial susceptibility (disk, inhibition zone)” value (SWTD5 (RUSA12F/pGCSW-3)) is reported as “restored resistance” and the “antimicrobial susceptibility (disk, inhibition zone)” value (SWTD3 (RUSA315/pGCSW-3) [1]) is reported as “restored resistance”.

With Cc1nnc(SCC2=C(C(=O)O)N3C(=O)[C@@H](NC(=O)Cn4cnnn4)[C@H]3SC2)s1 [cefazoline, cefazolin] the “antimicrobial susceptibility (disk, inhibition zone)” value (SWTD5 (RUSA12F/pGCSW-3)) was “restored resistance” and the “antimicrobial susceptibility (disk, inhibition zone)” value (SWTD3 (RUSA315/pGCSW-3) [1]) was “restored resistance”.

In the case of COc1cccc(OC)c1C(=O)N[C@@H]1C(=O)N2[C@@H]1SC(C)(C)[C@@H]2C(=O)O [methicillin], the “antimicrobial susceptibility (disk, inhibition zone)” value (SWTD5 (RUSA12F/pGCSW-3)) is given as “restored resistance”, the “methicillin MIC” value [2] is given as 1 to 2 µg/mL and the “methicillin concentration range within which all four normal PBPs become fully acylated” value (four staphylococcal PBPs) is given as 5 to 10 mg/L. For the same molecule, the MIC (MRSA strain COL [3]; Staphylococcus aureus, MRSA, read-out: methicillin MIC) was 1600 µg/mL (≈ 4210 µM), the “methicillin MIC” value (MRSA strain COL [3]; parental MRSA strain COL) was 1600 µg/mL and the “methicillin MIC” value ([4]; Tn551 mutants still producing normal amounts of PBP2A) was 3 µg/mL. For the same molecule, the MIC ([4]; inactivation of auxiliary genes, PBP2A present) was 3 mg methicillin per liter, the “antimicrobial susceptibility (disk, inhibition zone)” value (SWTD3 (RUSA315/pGCSW-3) [1]) was “restored resistance” and the “critical concentration at which a new cell wall synthetic machinery, presumably PBP2A, takes over” value (strain COL) was “about 5 mg/L”. The MIC [5] was 1.5 to 200 µg/mL (≈ 3.94 to 526 µM), the “level of methicillin resistance by population analysis” value (SWTD3 (RUSA315/pGCSW-3) [6]) was “same level of methicillin resistance as the parental Mc^r strain COL” and the “methicillin MIC” value (MRSA strain COL [7]; highly resistant strain COL) was 1600 µg/mL. For the same molecule, the MIC (MRSA strain COL [7]; parental bacterium before Tn551 inactivation) was 1600 µg/mL (≈ 4210 µM), the MIC [8] was “about 4 μg/ml” and the MIC [9] was 12 to 25 µg/mL (≈ 31.5 to 65.7 µM). It also gave an MIC ([9]; RUSA315, Tn551 insert Ω720, read-out: methicillin MIC) of 1.5 µg/mL (≈ 3.94 µM).

For penicillin, the “antimicrobial susceptibility (disk, inhibition zone)” value (SWTD5 (RUSA12F/pGCSW-3)) was “restored resistance” and the “antimicrobial susceptibility (disk, inhibition zone)” value (SWTD3 (RUSA315/pGCSW-3) [1]) was “restored resistance”.
